US20230151017A1, “THERAPEUTIC AGENTS TARGETING GPR35” (PROMETHEUS BIOSCIENCES, INC., priority 2020, published 2023)
pEC50: −log10 of the molar value.

Target: T1, Human GPR35 (Homo sapiens, UniProt Q9HC97)
T1 construct: Tango receptor fusion (protease cleavage site + Gal4-VP16 transcription factor); host or cells: Jump-In Tango U2OS cells
Experiment: Beta-Arrestin Assay
Assay type: cell-based
Details: Human GPR35 expressing JumpIn 294S Tango U2OS cells; compounds overnight; LiveBLAzer-FRET B/G (CCF4-AM) readout
Method: Human GPR35 expressing JumpIn (Thermo Fisher) 294S Tango U2OS cells were plated in 384-well format in clear bottom plates at a cell density of 10,000 cells/well and allowed to adhere for 5 hours. Cells were then treated with serially diluted test compounds overnight. The next day, LiveBLAzer-FRET B/G (CCF4-AM) detection reagents were added, and cells were allowed to incubate for 4 hours in the dark at room temp before reading plates on a BioTek Cytation 5 plate reader. To determine EC50 values, data were fit to a four-parameter dose-response curves.

T1 sequence (Q9HC97 whole entry, the tested form may be a part): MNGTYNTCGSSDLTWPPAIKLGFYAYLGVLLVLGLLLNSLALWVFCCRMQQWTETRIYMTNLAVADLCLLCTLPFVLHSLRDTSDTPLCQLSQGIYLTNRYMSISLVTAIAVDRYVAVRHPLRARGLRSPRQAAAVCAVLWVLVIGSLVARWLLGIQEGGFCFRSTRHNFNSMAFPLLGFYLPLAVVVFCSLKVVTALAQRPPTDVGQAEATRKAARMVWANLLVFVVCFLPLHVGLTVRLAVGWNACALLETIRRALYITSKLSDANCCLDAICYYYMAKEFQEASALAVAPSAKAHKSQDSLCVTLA

| Structure (SMILES) | pEC50 |
| --- | --- |
| CCOc1cc(-c2ccc(CO)cc2)ccc1-c1nc2[nH]nnc2c(=O)[nH]1 [Compound 105, 5-(3-Ethoxy-4′-(hydroxymethyl)-[1,1′-biphenyl]-4-yl)-3,6-dihydro-7H-[1,2,3]triazolo[4,5-d]pyrimidin-7-one] | ≥ 6.00 |
| CCOc1cc(-c2ccc(S(N)(=O)=O)cc2)ccc1-c1nc2[nH]nnc2c(=O)[nH]1 [Compound 107, 3′-Ethoxy-4′-(7-oxo-6,7-dihydro-3H-[1,2,3]triazolo[4,5-d]pyrimidin-5-yl)-[1,1′-biphenyl]-4-sulfonamide] | 5.00 to 6.00 |
| CCOc1cc(-c2cc(CCC(=O)O)cc(OCCN)c2)ccc1-c1nc2[nH]nnc2c(=O)[nH]1 [Compound 115, 3-(5-(2-aminoethoxy)-3′-ethoxy-4′-(7-oxo-6,7-dihydro-3H-[1,2,3]triazolo[4,5-d]pyrimidin-5-yl)-[1,1′-biphenyl]-3-yl)propanoic acid] | 5.00 to 6.00 |
| CCOc1cc(-c2ccc(C(N)=O)cc2)ccc1-c1nc2[nH]nnc2c(=O)[nH]1 [Compound 101, 3′-Ethoxy-4′-(7-oxo-6,7-dihydro-3H-[1,2,3]triazolo[4,5-d]pyrimidin-5-yl)-[1,1′-biphenyl]-4-carboxamide] | ≥ 6.00 |
| CCOc1cc(-c2cc(O)cc(/C=C/C(=O)O)c2)ccc1-c1nc2[nH]nnc2c(=O)[nH]1 [Compound 112, (E)-3-(3′-ethoxy-5-hydroxy-4′-(7-oxo-6,7-dihydro-3H-[1,2,3]triazolo[4,5-d]pyrimidin-5-yl)-[1,1′-biphenyl]-3-yl)acrylic acid] | ≥ 6.00 |
| CCOc1cc(-c2ccc(O)c(O)c2)ccc1-c1nc2[nH]nnc2c(=O)[nH]1 [Compound 108, 5-(3-Ethoxy-3′,4′-dihydroxy-[1,1′-biphenyl]-4-yl)-3,6-dihydro-7H-[1,2,3]triazolo[4,5-d]pyrimidin-7-one] | ≥ 6.00 |
| CCOc1cc(-c2cc(O)cc(CCC(N)=O)c2)ccc1-c1nc2[nH]nnc2c(=O)[nH]1 [Compound 114, 3-(3′-Ethoxy-5-hydroxy-4′-(7-oxo-6,7-dihydro-3H-[1,2,3]triazolo[4,5-d]pyrimidin-5-yl)-[1,1′-biphenyl]-3-yl)propanamide] | ≥ 6.00 |
| CCOc1cc(-c2cc(O)cc(CCC(=O)O)c2)ccc1-c1nc2[nH]nnc2c(=O)[nH]1 [Compound 113, 3-(3′-Ethoxy-5-hydroxy-4′-(7-oxo-6,7-dihydro-3H-[1,2,3]triazolo[4,5-d]pyrimidin-5-yl)-[1,1′-biphenyl]-3-yl)propanoic acid] | ≥ 6.00 |
| CCOc1cc(-c2cccc(CO)c2)ccc1-c1nc2[nH]nnc2c(=O)[nH]1 [Compound 104, 5-(3-Ethoxy-3′-(hydroxymethyl)-[1,1′-biphenyl]-4-yl)-3,6-dihydro-7H-[1,2,3]triazolo[4,5-d]pyrimidin-7-one] | ≥ 6.00 |
| CCOc1cc(-c2ccc(O)cc2O)ccc1-c1nc2[nH]nnc2c(=O)[nH]1 [Compound 110, 5-(3-Ethoxy-2′,4′-dihydroxy-[1,1′-biphenyl]-4-yl)-3,6-dihydro-7H-[1,2,3]triazolo[4,5-d]pyrimidin-7-one] | 5.00 to 6.00 |
| CCOc1cc(-c2cccc(CCCO)c2)ccc1-c1nc2[nH]nnc2c(=O)[nH]1 [Compound 102, 5-(3-Ethoxy-3′-(3-hydroxypropyl)-[1,1′-biphenyl]-4-yl)-3,6-dihydro-7H-[1,2,3]triazolo[4,5-d]pyrimidin-7-one] | ≥ 6.00 |
| CCOc1cc(-c2cccc(S(N)(=O)=O)c2)ccc1-c1nc2[nH]nnc2c(=O)[nH]1 [Compound 106, 3′-Ethoxy-4′-(7-oxo-6,7-dihydro-3H-[1,2,3]triazolo[4,5-d]pyrimidin-5-yl)-[1,1′-biphenyl]-3-sulfonamide] | 5.00 to 6.00 |
| CCOc1cc(-c2cc(O)cc(O)c2)ccc1-c1nc2[nH]nnc2c(=O)[nH]1 [Compound 111, 5-(3-Ethoxy-3′,5′-dihydroxy-[1,1′-biphenyl]-4-yl)-3,6-dihydro-7H-[1,2,3]triazolo[4,5-d]pyrimidin-7-one] | ≥ 6.00 |
| CCOc1cc(-c2cc(O)ccc2O)ccc1-c1nc2[nH]nnc2c(=O)[nH]1 [Compound 109, 5-(3-Ethoxy-2′,5′-dihydroxy-[1,1′-biphenyl]-4-yl)-3,6-dihydro-7H-[1,2,3]triazolo[4,5-d]pyrimidin-7-one] | ≥ 6.00 |
| CCOc1cc(-c2cccc(CCO)c2)ccc1-c1nc2[nH]nnc2c(=O)[nH]1 [Compound 103, 5-(3-Ethoxy-3′-(2-hydroxyethyl)-[1,1′-biphenyl]-4-yl)-3,6-dihydro-7H-[1,2,3]triazolo[4,5-d]pyrimidin-7-one] | 5.00 to 6.00 |

Second part, the compound after the results:

| pEC50 | Structure (SMILES) |
| --- | --- |
| 5.00 to 6.00 | CCOc1cc(-c2cccc(CCC(=O)NO)c2)ccc1-c1nc2[nH]nnc2c(=O)[nH]1 [Compound 117, 3-(3′-Ethoxy-4′-(7-oxo-6,7-dihydro-3H-[1,2,3]triazolo[4,5-d]pyrimidin-5-yl)-[1,1′-biphenyl]-3-yl)-N-hydroxypropanamide] |
| ≥ 6.00 | CCOc1cc(-c2cccc(CCc3nnn[nH]3)c2)ccc1-c1nc2[nH]nnc2c(=O)[nH]1 [Compound 124, 5-(3′-(2-(1H-Tetrazol-5-yl)ethyl)-3-ethoxy-[1,1′-biphenyl]-4-yl)-3,6-dihydro-7H-[1,2,3]triazolo[4,5-d]pyrimidin-7-one] |
| ≥ 6.00 | CCOc1cc(-c2cccc(CC3OC(=O)NC3=O)c2)ccc1-c1nc2[nH]nnc2c(=O)[nH]1 (stereo not shown) [Compound 125, 5-((3′-Ethoxy-4′-(7-oxo-6,7-dihydro-3H-[1,2,3]triazolo[4,5-d]pyrimidin-5-yl)-[1,1′-biphenyl]-3-yl)methyl)oxazolidine-2,4-dione] |
| ≥ 6.00 | CCOc1cc(-c2cccc(CCC(=O)NS(=O)(=O)N(C)C)c2)ccc1-c1nc2[nH]nnc2c(=O)[nH]1 [Compound 123, N—(N,N-Dimethylsulfamoyl)-3-(3′-ethoxy-4′-(7-oxo-6,7-dihydro-3H-[1,2,3]triazolo[4,5-d]pyrimidin-5-yl)-[1,1′-biphenyl]-3-yl)propanamide] |
| ≥ 6.00 | CCOc1cc(-c2ccc(OCCN)c(CCC(=O)O)c2)ccc1-c1nc2[nH]nnc2c(=O)[nH]1 [Compound 116, 3-(4-(2-Aminoethoxy)-3′-ethoxy-4′-(7-oxo-6,7-dihydro-3H-[1,2,3]triazolo[4,5-d]pyrimidin-5-yl)-[1,1′-biphenyl]-3-yl)propanoic acid] |
| ≥ 6.00 | CCOc1cc(-c2cccc(CC3SC(=O)NC3=O)c2)ccc1-c1nc2[nH]nnc2c(=O)[nH]1 (stereo not shown) [Compound 121, 5-((3′-Ethoxy-4′-(7-oxo-6,7-dihydro-3H-[1,2,3]triazolo[4,5-d]pyrimidin-5-yl)-[1,1′-biphenyl]-3-yl)methyl)thiazolidine-2,4-dione] |
| ≥ 6.00 | CCOc1cc(-c2cccc(/C=C3\SC(=O)NC3=O)c2)ccc1-c1nc2[nH]nnc2c(=O)[nH]1 [Compound 120, (Z)-5-((3′-Ethoxy-4′-(7-oxo-6,7-dihydro-3H-[1,2,3]triazolo[4,5-d]pyrimidin-5-yl)-[1,1′-biphenyl]-3-yl)methylene)thiazolidine-2,4-dione] |
| 5.00 to 6.00 | CCOc1cc(-c2cccc(CCC(N)=O)c2)ccc1-c1nc2[nH]nnc2c(=O)[nH]1 [Compound 119, 3-(3′-Ethoxy-4′-(7-oxo-6,7-dihydro-3H-[1,2,3]triazolo[4,5-d]pyrimidin-5-yl)-[1,1′-biphenyl]-3-yl)propanamide] |
| ≥ 6.00 | CCOc1cc(-c2ccc(C(O)(O)C(F)(F)F)cc2)ccc1-c1nc2[nH]nnc2c(=O)[nH]1 [Compound 128, 5-(3-Ethoxy-4′-(2,2,2-trifluoro-1,1-dihydroxyethyl)-[1,1′-biphenyl]-4-yl)-3,6-dihydro-7H-[1,2,3]triazolo[4,5-d]pyrimidin-7-one] |
| ≥ 6.00 | CCOc1cc(-c2cccc(Cc3c(C)[nH]oc3=O)c2)ccc1-c1nc2[nH]nnc2c(=O)[nH]1 [Compound 126, 4-((3′-Ethoxy-4′-(7-oxo-6,7-dihydro-3H-[1,2,3]triazolo[4,5-d]pyrimidin-5-yl)-[1,1′-biphenyl]-3-yl)methyl)-3-methylisoxazol-5(2H)-one] |
| 5.00 to 6.00 | CCOc1cc(-c2cccc(CCC(=O)NOC)c2)ccc1-c1nc2[nH]nnc2c(=O)[nH]1 [Compound 118, 3-(3′-Ethoxy-4′-(7-oxo-6,7-dihydro-3H-[1,2,3]triazolo[4,5-d]pyrimidin-5-yl)-[1,1′-biphenyl]-3-yl)-N-methoxypropanamide] |
| ≥ 6.00 | CCOc1cc(-c2cccc(CCc3noc(=O)[nH]3)c2)ccc1-c1nc2[nH]nnc2c(=O)[nH]1 [Compound 122, 3-(2-(3′-Ethoxy-4′-(7-oxo-6,7-dihydro-3H-[1,2,3]triazolo[4,5-d]pyrimidin-5-yl)-[1,1′-biphenyl]-3-yl)ethyl)-1,2,4-oxadiazol-5(4H)-one] |
| ≥ 6.00 | CCOc1cc(-c2cccc(C(O)(O)C(F)(F)F)c2)ccc1-c1nc2[nH]nnc2c(=O)[nH]1 [Compound 127, 5-(3-Ethoxy-3′-(2,2,2-trifluoro-1,1-dihydroxyethyl)-[1,1′-biphenyl]-4-yl)-3,6-dihydro-7H-[1,2,3]triazolo[4,5-d]pyrimidin-7-one] |
